Read-outs that look alike come from different tables or passages of the source.
Test system: RSV A2 strain
Assay: In vitro CPE (CytoPathic Effect) inhibition effect evaluation test, RSV type A
Assay type: cell-based
How it was run: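 EC50 is the concentration giving 50% inhibition of virus-induced cytopathic effect, fitted by nonlinear regression from CellTiter-Glo 2.0 viability. Compounds in 3-fold series were co-incubated at 37 °C with HEp-2 cells and RSV: A2 strain for 4 days, B (Wash/18537) for 5 days; uninfected wells served as control.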

[1] = inhibitory effect against RSV type A (RSV A2 strain), HEp-2 cells, CPE inhibition, read-out: EC50
[2] = human respiratory syncytial virus, inhibitory effect against RSV type A (RSV A2 strain), HEp-2 cells, CPE inhibition, read-out: EC50
[3] = human respiratory syncytial virus, HEp-2, 96 h, read-out: EC50, inhibitory effect against RSV type A (CPE inhibition)
[4] = human respiratory syncytial virus, HEp-2

EC50 [2]	SMILES	other results
	CN(c1ccc2c(c1)C1(CCOCC1)CN2c1ncc(C(=O)NC2(C(=O)O)C3CC4CC(C3)CC2C4)c(C(F)(F)F)n1)S(=O)(=O)c1ccccc1 (centres unmarked) [Compound I-344]	EC50 [1]: 10 to 100 nM
10 to 100 nM	COc1cncc(COc2ccc3c(c2)CCN3c2ncc(C(=O)NC3(C(=O)O)CCCCC3)c(C(F)(F)F)n2)c1 [Compound I-30]	
< 10 nM	O=C(NC1(C(=O)O)C2CC3CC(C2)CC1C3)c1cnc(-c2cn(C3CCC(F)(F)CC3)c3cc(OC4CCN(C5CCOCC5)CC4)ccc23)nc1C(F)(F)F (centres unmarked) [Compound I-242]	
	CC1CN(c2ncccn2)CCC1Oc1ccc2c(-c3ncc(C(=O)NC4(C(=O)O)C5CC6CC(C5)CC4C6)c(C(F)(F)F)n3)cn(C3CCC(F)(F)CC3)c2c1 (single isomer, unassigned) [Compound I-404]	EC50 [1]: < 10 nM
< 10 nM	CC(C)(C)C(NC(=O)c1cnc(-c2cn(C3CCC(F)(F)CC3)c3cc(OC4CCN(c5ncccn5)CC4)ccc23)nc1C(F)(F)F)C(=O)O (racemic) [Compound I-263]	
	O=C(NC1(C(=O)O)C2CC3CC(C2)CC1C3)c1cnc(N2CC3(CCS(=O)(=O)CC3)c3cc(OC4CCN(c5ncc(F)cn5)CC4)ccc32)nc1C(F)(F)F (centres unmarked) [Compound I-365]	EC50 [1]: < 10 nM
10 to 100 nM	CC(C)(C)OC(=O)N1CCC(Oc2ccc3c(c2)CCN3c2ncc(C(=O)NC3(C(=O)O)CCCCC3)c(C(F)(F)F)n2)CC1 [Compound I-32]	
	Cn1ccc(-n2cc(-c3ccc(C(=O)NC4(C(=O)O)C5CC6CC(C5)CC4C6)c(C(F)(F)F)n3)c3ccc(OC4CCN(c5ncccn5)CC4)cc32)c1 (centres unmarked) [Compound I-334]	EC50 [1]: < 10 nM
< 10 nM	O=C(NC1(C(=O)O)C2CC3CC(C2)CC1C3)c1cnc(N2CC3(C=CCC3)c3cc(OC4CCN(c5ncccn5)CC4)ccc32)nc1C(F)(F)F (racemic) [Compound I-243]	
< 10 nM	COC1CC(n2cc(-c3ncc(C(=O)NC4(C(=O)O)C5CC6CC(C5)CC4C6)c(C(F)(F)F)n3)c3ccc(OC4CCN(c5ncc(F)cn5)CC4)cc32)C1 (centres unmarked) [Compound I-378]	
	Cc1cnccc1-n1cc(-c2ccc(C(=O)NC3(C(=O)O)C4CC5CC(C4)CC3C5)c(C(F)(F)F)n2)c2ccc(OC3CCN(c4ncccn4)CC3)cc21 (centres unmarked) [Compound I-317]	EC50 [1]: < 10 nM
	O=C(NC1(C(=O)O)C2CC3CC(C2)CC1C3)c1cnc(N2CC3(CCOCC3)c3cc(C(F)(F)F)ccc32)nc1C(F)(F)F (centres unmarked) [Compound I-307]	EC50 [1]: < 10 nM
	O=C(NC1(C(=O)O)C2CC3CC(C2)CC1C3)c1cnc(-c2cn(C3CCC(F)CC3)c3cc(O[C@H]4CC[C@H](N5CC(F)(F)C5)CC4)ccc23)nc1C(F)(F)F (single isomer, unassigned) [Compound I-510]	EC50 [1]: < 10 nM
< 10 nM	O=C(NC1(C(=O)O)C2CC3CC(C2)CC1C3)c1cnc(N2CCc3cc(CN4CCN(c5ncccn5)CC4)ccc32)nc1C(F)(F)F (centres unmarked) [Compound I-213]	
	O=C(NC1(C(=O)O)C2CC3CC(C2)CC1C3)c1cnc(N2C(=O)C3(C=CCC3)c3cc(OC4CCN(c5ncccn5)CC4)ccc32)nc1C(F)(F)F (racemic) [Compound I-269]	EC50 [3]: 1.3 nM
< 10 nM	O=C(NC1(C(=O)O)C2CC3CC(C2)CC1C3)c1cnc(N2CC3(CCOCC3)c3cc(O[C@H]4CC[C@@H](n5cccn5)CC4)ccc32)nc1C(F)(F)F (some centres unmarked) [Compound I-192]	
	O=C(NC1(C(=O)O)C2CC3CC(C2)CC1C3)c1ccc(-c2cn(C3=CCC(F)(F)CC3)c3cc(OC4CCN(c5ncc(F)cn5)CC4)ccc23)nc1C(F)(F)F (centres unmarked) [Compound I-359]	EC50 [1]: < 10 nM
	O=C(NC1(C(=O)O)C2CC3CC(C2)CC1C3)c1ccc(-c2cn(-c3ccncc3C(F)(F)F)c3cc(OC4CCN(c5ncccn5)CC4)ccc23)nc1C(F)(F)F (centres unmarked) [Compound I-329]	EC50 [1]: < 10 nM
10 to 100 nM	CCNC(=O)N1CCC(Oc2ccc3c(c2)CCN3c2ncc(C(=O)NC3(C(=O)O)CCCCC3)c(C(F)(F)F)n2)CC1 [Compound I-112]	
10 to 100 nM	O=C(NC1(C(=O)O)CCCCC1)c1cnc(N2CCc3cc(OC4CCN(c5cccnc5)CC4)ccc32)nc1C(F)(F)F [Compound I-51]	
< 10 nM	CC(N1CCC(Oc2ccc3c(-c4ncc(C(=O)NC5(C(=O)O)C6CC7CC(C6)CC5C7)c(C(F)(F)F)n4)cn(C4CCC(F)(F)CC4)c3c2)CC1)C(F)(F)F (racemic) [Compound I-449]	
< 10 nM	O=C(NC1(C(=O)O)C2CC3CC(C2)CC1C3)c1cnc(-c2cn(C3CCC(F)(F)CC3)c3cc(O[C@H]4CCN(c5ncc(F)cn5)C4)ccc23)nc1C(F)(F)F (some centres unmarked) [Compound I-377]	
10 to 100 nM	O=C(NC1(C(=O)O)CCCCC1)c1cnc(N2CCc3cc(OCC4CN(c5ncccn5)CCO4)ccc32)nc1C(F)(F)F (racemic) [Compound I-66]	
	O=C(NC1(C(=O)O)C2CC3CC(C2)CC1C3)c1ccc(N2CC3(CCOCC3)c3cc(OCCC4CCOCC4)ccc32)nc1C(F)(F)F (centres unmarked) [Compound I-101]	EC50 [1]: < 10 nM
< 10 nM	Cc1nc(N2CC3(CCOCC3)c3cc(OC4CCN(c5ncccn5)CC4)ccc32)nc(C(F)(F)F)c1C(=O)NC1(C(=O)O)C2CC3CC(C2)CC1C3 (centres unmarked) [Compound I-229]	

EC50 [2]	SMILES	other results
< 10 nM	O=C(NC1(C(=O)O)C2CC3CC(C2)CC1C3)c1cnc(-c2cn(C3CCC(F)(F)CC3)c3cc(OC4CCN(CC(F)(F)C(F)(F)F)CC4)ccc23)nc1C(F)(F)F (centres unmarked) [Compound I-408]	
< 10 nM	NC(=O)C1(NC(=O)c2cnc(N3CC4(CCOCC4)c4cc(OCCN5CCOCC5)ccc43)nc2C(F)(F)F)C2CC3CC(C2)CC1C3 (centres unmarked) [Compound I-170]	
< 10 nM	O=C(NC1(C(=O)O)C2CC3CC(C2)CC1C3)c1ccc(-c2cn(CCO)c3cc(OC4CCN(c5ncccn5)CC4)ccc23)nc1C(F)(F)F (centres unmarked) [Compound I-200]	
	O=C(NC1(C(=O)O)C2CC3CC(C2)CC1C3)c1ccc(-c2cn(C3CCC(F)CC3)c3cc(OC4CCN(c5ncc(F)cn5)CC4)ccc23)nc1C(F)(F)F (single isomer, unassigned) [Compound I-398]	EC50 [1]: < 10 nM
	O=C(NC1(c2nn[nH]n2)CCCCC1)c1cnc(N2CC3(CCOCC3)c3cc(OC4CCN(c5ncccn5)CC4)ccc32)nc1C(F)(F)F [Compound I-98]	EC50 [4]: < 10 nM
< 10 nM	Cn1nc(-c2ccc(C(=O)NC3(C(=O)O)C4CC5CC(C4)CC3C5)c(C(F)(F)F)n2)c2ccc(OCCC3CCOCC3)cc21 (centres unmarked) [Compound I-127]	
< 10 nM	O=C(NC1(C(=O)O)C2CC3CC(C2)CC1C3)c1cnc(N2CCc3cc(OCCC4CCOCC4)ccc32)nc1C(F)F (centres unmarked) [Compound I-157]	
< 10 nM	CC1(C)CN(c2ncc(C(=O)NC3(C(=O)O)CCCCC3)c(C(F)(F)F)n2)c2ccc(OCCC3CCOCC3)cc21 [Compound I-54]	
< 10 nM	O=C(NC1(C(=O)O)C2CC3CC(C2)CC1C3)c1ccc(-c2cn(-c3cncnc3)c3cc(OC4CCN(c5ncccn5)CC4)ccc23)nc1C(F)(F)F (centres unmarked) [Compound I-196]	
100 to 5000 nM	COc1cccc(COc2ccc3c(c2)CCN3c2ncc(C(=O)NC3(C(=O)O)CCOCC3)c(C(F)(F)F)n2)c1 [Compound I-14]	
10 to 100 nM	O=C(NC1(C(=O)O)CCCCC1)c1cnc(N2CCc3cc(OCC4CN(CC(F)(F)F)CCO4)ccc32)nc1C(F)(F)F (racemic) [Compound I-58]	
< 10 nM	CN(CC(F)(F)F)[C@H]1CC[C@@H](Oc2ccc3c(-c4ncc(C(=O)NC5(C(=O)O)C6CC7CC(C6)CC5C7)c(C(F)(F)F)n4)cn(C4CCC(F)(F)CC4)c3c2)CC1 (some centres unmarked) [Compound I-448]	
< 10 nM	Cc1c(OC2CCN(c3ncccn3)CC2)ccc2c(-c3ncc(C(=O)NC4(C(=O)O)C5CC6CC(C5)CC4C6)c(C(F)(F)F)n3)cn(C3CCC(F)(F)CC3)c12 (centres unmarked) [Compound I-282]	
	N#Cc1ccc(-n2cc(-c3ccc(C(=O)NC4(C(=O)O)C5CC6CC(C5)CC4C6)c(C(F)(F)F)n3)c3ccc(OC4CCN(c5ncccn5)CC4)cc32)nc1 (centres unmarked) [Compound I-340]	EC50 [1]: < 10 nM
	CN(C(=O)c1ccccc1)c1ccc2c(c1)C1(CCOCC1)CN2c1ncc(C(=O)NC2(C(=O)O)C3CC4CC(C3)CC2C4)c(C(F)(F)F)n1 (centres unmarked) [Compound I-343]	EC50 [1]: 10 to 100 nM
< 10 nM	O=C(NC1(C(=O)O)C2CC3CC(C2)CC1C3)c1cnc(N2CC3(CCOCC3)c3cc(C4CC4)ccc32)nc1C(F)(F)F (centres unmarked) [Compound I-115]	
< 10 nM	CC(C)(C)C[C@@H](NC(=O)c1cnc(-c2cn(C3CCC(F)(F)CC3)c3cc(OC4CCN(c5ncccn5)CC4)ccc23)nc1C(F)(F)F)C(=O)O [Compound I-302]	
< 10 nM	N#C[C@H]1CC[C@@H](n2cc(-c3ccc(C(=O)NC4(C(=O)O)C5CC6CC(C5)CC4C6)c(C(F)(F)F)n3)c3ccc(OC4CCN(c5ncccn5)CC4)cc32)CC1 (some centres unmarked) [Compound I-186]	
< 10 nM	O=C(NC1(C(=O)O)C2CC3CC(C2)CC1C3)c1ccc(-c2cn(CC(F)(F)F)c3cc(OC4CCN(c5ncccn5)CC4)ccc23)nc1C(F)(F)F (centres unmarked) [Compound I-252]	
	CN1CCC2(CC1)CN(c1ncc(C(=O)NC3(C(=O)O)CCCCC3)c(C(F)(F)F)n1)c1ccc(OCCC3CCOCC3)cc12 [Compound I-62]	EC50 [4]: < 10 nM
< 10 nM	O=C(NC1(C(=O)O)C2CC3CC(C2)CC1C3)c1cnc(N2CC3(CCOCC3)c3cc(OC4CN(C(=O)C5COC5)C4)ccc32)nc1C(F)(F)F (centres unmarked) [Compound I-230]	
< 10 nM	O=C(NC1(C(=O)O)C2CC3CC(C2)CC1C3)c1ccc(-c2cn(C3CS(=O)(=O)C3)c3cc(OC4CCN(c5ncccn5)CC4)ccc23)nc1C(F)(F)F (centres unmarked) [Compound I-251]	
	Cn1c(C2CCOCC2)c(-c2ccc(C(=O)NC3(C(=O)O)C4CC5CC(C4)CC3C5)c(C(F)(F)F)n2)c2ccc(OC3CCN(c4ncccn4)CC3)cc21 (centres unmarked) [Compound I-270]	EC50 [3]: 37 nM
10 to 100 nM	CCC(F)(F)c1nc(N2CCc3cc(OCCC4CCOCC4)ccc32)ncc1C(=O)NC1(C(=O)O)C2CC3CC(C2)CC1C3 (centres unmarked) [Compound I-178]	
10 to 100 nM	O=C(NC1(C(=O)O)CCCCC1)c1cnc(N2CCc3cc(NC4CCN(c5ncccn5)CC4)ccc32)nc1C(F)(F)F [Compound I-67]	
